We go through 1 molecule from US20050261246A1, “Methods for treating inflammatory and autoimmune diseases” (priority 2004, published 2005).

A short description of series [1]: Body weight and tolerability in arthritic and non-arthritic rats of the AA study. The series is classed as in vivo, rat. The source says: Adult male Lewis rats (200-250 g) were purchased from Charles River Laboratories, Raleigh, N.C. and housed two per cage. The animals were allowed to acclimate to the Sun Health Research Institute's vivarium for 7 days prior to the start of the experiment. The animals were maintained on a 12-h off/on light schedule. For AA rats rodent Diet (Purina Lab Diet 5001) was placed in the bottom of the cage and water was supplied using long-stemmed sipper tubes for easy access to food and water. […] Animals were weighed and observed daily to ensure adequate weight gain and good general health. Body weights and footpad measures were started 1 week prior to the first adjuvant injection to acclimate the animals to these mild stresses and obtain baseline data. Other than the development of arthritis, the good health of the animals was maintained throughout the course of the experiments. Protocols for the use and care of the animals in the study were approved prior to beginning the experiments by the Sun Health Research Institute Animal Use and Care Committee and complied with NIH guidelines for the humane use and care of research animals. Dorsoplantar footpad measurements were completed every other day. Prior to sacrifice the animals were given a 1.0 ml intraperitoneal (i.p.) injection of 8% chloral hydrate in sterile saline and radiographs were taken of their hind limbs to assess disease severity. The animals were then sacrificed using an overdose of chloral hydrate.
Lewis rats were randomly assigned into five experimental groups of four animals per group. The experimental groups were 1) saline/M. Butyricum suspended in saline (non-arthritic; control for drug and antigen challenge), 2) sodium narcistatin/M. Butyricum suspended in saline (non-arthritic; drug control for antigen challenge), 3) no treatment-CFA (arthritic; control for stress of injections), 4) saline-CFA (arthritic; control for drug treatment), and 5) sodium-narcistatin-CFA (arthritic) treatments. The experiment was completed with an N=4 then repeated with an additional N=4. […]

The next series concerns CAIA mice. The series can be described thus: Collagen type II antibody-induced arthritis (CAIA) mouse model. The series is classed as in vivo. As to the method: FIG. 9A-H the effect of SNS on hind paw swelling in CAIA mice. A and E: Day 0, B and F: Day 7, C: Day 10 in PBS-treated CAIA, G: Day 10 in SNS-treated CAIA after 3 injections, D: Day 12 in PBS-treated mice, and H: Day 12 in SNS-treated CAIA mice after five injections. SNS treatment was started on day 7 after anti-collagen type II mAb injection and i.p. injections of SNS were continued for 5 consecutive days at a dose of 5 mg/kg.
FIG. 10 is a graph of the data (exemplified in FIG. 9) on CAIA progression and effect of SNS on foot pad measurements in CAIA mice. Solid square: PBS-treated CAIA group (n=5), closed triangle: SNS-treated CAIA group (n=5). SNS treatment (i.p.) was started on day 7 after anti-collagen type II mAb injection, and SNS injections were continued for 5 consecutive days at a dose of 5 mg/kg. Values represent mean±S.E.M. P<0.0001. Statistical analysis was performed using t-test.
Sections of ankle joints were stained with hematoxylin and eosin (original magnification, ×10) on day 21 after mAb injection. SNS treatment (i.p.) was started on day 7 after anti-collagen type II mAb injection, and SNS injections were continued for 5 consecutive days at a dose of 5 mg/kg. Representative joint sections in non-CAIA group (A and D), PBS-treated CAIA (B and E), and SNS-treated CAIA (C and F) are shown at magnifications of ×10 and ×40, respectively.
Collagen-induced arthritis (CIA) is an experimental model for rheumatoid arthritis. In this model, antibodies against type II collagen are critical for the pathogenesis of arthritis. […] This model system has been used for investigating underlying cellular and molecular mechanisms during the effector phase of CIA (1).
FIGS. 9-10 show CAIA progression and the effect of SNS on hind paw swelling in CAIA mice. […] A and E: Day 0 (mAb immunization), B and F: Day 7 after antibody injection, C. Day10 after immunization in PBS-treated CAIA, G: Day 10 after immunization in SNS-treated CAIA after three SNS injections, D: Day 12 after immunization in PBS-treated CAIA mice, and […]: Day 12 after immunization in SNS-treated CAIA mice after five SNS injections. Ib. […] Solid square: control CAIA group treated with PBS (n=5), closed triangle: sodium narcistatin-treated CAIA group (n=5). Values represent mean±S.E.M. p<0.0001 vs. control CAIA group.

Series [2] has as its system splenic myeloid cells (CD11b+), T and B cells. Briefly: Splenic cell populations in SNS-treated rats (immunostaining, flow cytometry). Format: in vivo, rat. As to the method: B. Summary of myeloid cells (CD11b+ cells) present in various treatment groups. The statistical analysis was performed using t-test (*, N=4). SMB-saline, saline treated, non-arthritic, mycobacterium challenged; SMB-SNS, SNS treated, non-arthritic, mycobacterium challenged; CFA-saline, arthritic Saline treated; CFA-No-RX, arthritic no treatment (stress control); CFA-SNS, SNS treated arthritic. The experimental groups are the same as those in FIGS. 4-7.
One of characteristics of inflammatory response is an elevation of myeloid cells. […] The cells were stained with fluorescence-conjugated antibodies specific to CD3, CD45R, and CD11b, followed by analyses using flow cytometry to reveal T, B, and myeloid cells, respectively. Lymphoid and myeloid cells were distinguished based on their differing forward and side scatter patterns.

On to `O=C1N[C@@H]2C(=C[C@H](O)[C@H]3OP(=O)(O)O[C@H]32)c2cc3c(c(O)c21)OCO3` [SNS, sodium narcistatin], for which, in series [1] (body weights and gross evaluation of internal organs at end point), the “tolerability / overt toxicity, arthritic rats” value was “no general signs of overt toxicity were apparent”. Also, the “body weight, non-arthritic control rats” value in series [1] (day 28, chronic treatment, vs saline-treated non-arthritic controls, P<0.001) is on record as “significantly decreased body weights”. In series [1] (day 28, vs untreated or saline-treated arthritic rats), the “body weight, arthritic rats” value is “not significantly different”. For the same molecule, in the series with CAIA mice (CAIA mice, 5 mg/kg i.p.), the “joint swelling after the fifth injection” value is listed as “swelling disappeared” and the “joint swelling after the third injection” value is recorded as “reduced joint swelling”. In addition, the ankle width entry with CAIA mice (CAIA mice, 5 mg/kg i.p. 5 consecutive days from day 7, vs saline-treated, P<0.0001) is “significant decrease”. The “histology of ankle joints: inflammatory infiltration, cartilage and bone destruction” value in the series with CAIA mice (CAIA mice, day 21, hematoxylin and eosin) was “very little inflammatory infiltration to ankle joints and virtually no cartilage and bone destruction”. The “toxicity in CAIA study” value in the series on CAIA mice (at the dosage used) is “toxic to the animals”. Also, the “toxicity, SNS treatment only” value with CAIA mice (mice that only received SNS) is “did not observe toxicity”. Further, the “toxicity, combination of SNS and LPS treatment” value in the series on CAIA mice (mouse, in vivo) is given as “appeared to increase toxicity”. The “splenic myeloid population (CD11b+ cells)” value in series [2] (rats of the AA study, especially SNS/non-arthritic group) is on record as “greatly reduced this myeloid population”. The “numbers of splenic T and B lymphocytes” value in series [2] (various treatment groups) was “comparable numbers of T and B lymphocytes”.
